Experimental data from ChEMBL document CHEMBL1201862, “PubChem BioAssay data set” (2004).
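1) Cells in 96-well plates. 2) Compound, 48 h, 5 concentrations. 3) Linear interpolation between surrounding doses. 4) Unreached endpoint = highest concentration. GI50 is the concentration that inhibits growth by half.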 Activity calls are given as the source filed them. No stated cut-off is given here; in the data, active = GI50 up to about 1.1 µM and inactive = higher.

Assays:
Assay in all cases: DTP human tumour cell line panel, 48 h
[1] = system: DMS-273
[2] = system: SW-620
[3] = system: RPMI-8226
[4] = system: SK-MEL-2
[5] = system: NCI-H522
[6] = system: KM-20L2
[7] = system: UACC-62
[8] = system: HOP-18
[9] = system: HCC 2998
[10] = system: DMS-114
[11] = system: HCT-116
[12] = system: OVCAR-5
[13] = system: SNB-78
[14] = system: UACC-257
[15] = system: UO-31
[16] = system: Malme-3M
[17] = system: 786-0
[18] = system: OVCAR-8
[19] = system: LXFL 529
[20] = system: ACHN
[21] = system: LOX IMVI
[22] = system: MOLT-4
[23] = system: NCI-H460
[24] = system: RXF 393
[25] = system: SF-539
[26] = system: SR
[27] = system: CCRF-CEM
[28] = system: NCI-H23
[29] = system: SN12C
[30] = system: M19-MEL
[31] = system: K562
[32] = system: SK-MEL-28
[33] = system: SK-OV-3
[34] = system: HL-60
[35] = system: SNB-19
[36] = system: HCT-15
[37] = system: EKVX
[38] = system: KM12
[39] = system: COLO 205
[40] = system: U-251
[41] = system: TK-10
[42] = system: SF-295
[43] = system: SF-268
[44] = system: DLD-1
[45] = system: SK-MEL-5
[46] = system: A549
[47] = system: IGROV-1
[48] = system: XF498
[49] = system: OVCAR-4
[50] = system: OVCAR-3
[51] = system: HOP-92
[52] = system: HOP-62
[53] = system: HT-29
[54] = system: M14
[55] = system: A498
[56] = system: NCI-H226
[57] = system: CAKI-1
[58] = system: SNB-75

## O=C1Nc2cccc3ncn(c23)C2=C1CCCC2
[1]
  GI50: > 100 µM (inactive)
[2]
  GI50: > 100 µM (inactive)
[3]
  GI50: > 100 µM (inactive)
[4]
  GI50: > 100 µM (inactive)
[5]
  GI50: > 100 µM (inactive)
[6]
  GI50: > 100 µM (inactive)
[7]
  GI50: > 100 µM (inactive)
[8]
  GI50: 4.98 µM (inactive)
[9]
  GI50: > 100 µM (inactive)
[10]
  GI50: > 100 µM (inactive)
[11]
  GI50: > 100 µM (inactive)
[12]
  GI50: > 100 µM (inactive)
[13]
  GI50: > 100 µM (inactive)
[14]
  GI50: > 100 µM (inactive)
[15]
  GI50: > 100 µM (inactive)
[16]
  GI50: > 100 µM (inactive)
[17]
  GI50: > 100 µM (inactive)
[18]
  GI50: > 100 µM (inactive)
[19]
  GI50: > 100 µM (inactive)
[20]
  GI50: > 100 µM (inactive)
[21]
  GI50: > 100 µM (inactive)
[22]
  GI50: > 100 µM (inactive)
[23]
  GI50: > 100 µM (inactive)
[24]
  GI50: > 100 µM (inactive)
[25]
  GI50: > 100 µM (inactive)
[26]
  GI50: > 100 µM (inactive)
[27]
  GI50: > 100 µM (inactive)
[28]
  GI50: > 100 µM (inactive)
[29]
  GI50: > 100 µM (inactive)
[30]
  GI50: > 100 µM (inactive)
[31]
  GI50: > 100 µM (inactive)
[32]
  GI50: > 100 µM (inactive)
[33]
  GI50: 96.2 µM (inactive)
[34]
  GI50: > 100 µM (inactive)
[35]
  GI50: > 100 µM (inactive)
[36]
  GI50: > 100 µM
[37]
  GI50: > 100 µM (inactive)
[38]
  GI50: > 100 µM (inactive)
[39]
  GI50: > 100 µM (inactive)
[40]
  GI50: > 100 µM (inactive)
[41]
  GI50: > 100 µM (inactive)
[42]
  GI50: > 100 µM (inactive)
[43]
  GI50: > 100 µM (inactive)
[44]
  GI50: > 100 µM (inactive)
[45]
  GI50: > 100 µM (inactive)
[46]
  GI50: > 100 µM (inactive)
[47]
  GI50: > 100 µM (inactive)

## COC(=O)/C(=N/O)C(C(=O)C=C(C)C)C(=O)C(=O)Nc1nc2ccc([N+](=O)[O-])cc2s1 (stereo not drawn)
[48]
  GI50: 58.7 µM (inactive)
[49]
  GI50: 31.8 µM (inactive)
[1]
  GI50: 45.4 µM (inactive)
[2]
  GI50: 33.8 µM (inactive)
[3]
  GI50: 27.9 µM (inactive)
[4]
  GI50: 25.8 µM (inactive)
[5]
  GI50: 32.1 µM (inactive)
[6]
  GI50: 80.2 µM (inactive)
[7]
  GI50: 32.6 µM (inactive)
[9]
  GI50: 35.6 µM (inactive)
[50]
  GI50: 21.5 µM (inactive)
[51]
  GI50: 13.1 µM (inactive)
[11]
  GI50: 41.7 µM (inactive)
[12]
  GI50: 37.7 µM (inactive)
[13]
  GI50: 27.7 µM (inactive)
[14]
  GI50: 44.6 µM (inactive)
[15]
  GI50: 26.8 µM (inactive)
[16]
  GI50: 27.5 µM (inactive)
[17]
  GI50: 37.3 µM (inactive)
[18]
  GI50: 39.5 µM (inactive)
[19]
  GI50: 25.6 µM (inactive)
[20]
  GI50: 24.4 µM (inactive)
[21]
  GI50: 22.9 µM (inactive)
[22]
  GI50: 23.9 µM (inactive)
[23]
  GI50: 37.9 µM (inactive)
[25]
  GI50: 23.2 µM (inactive)
[26]
  GI50: 38.1 µM (inactive)
[27]
  GI50: 24.7 µM (inactive)
[28]
  GI50: 25.2 µM (inactive)
[52]
  GI50: 32.9 µM (inactive)
[29]
  GI50: 32.2 µM (inactive)
[53]
  GI50: 59.7 µM (inactive)
[30]
  GI50: > 100 µM (inactive)
[31]
  GI50: 28.9 µM (inactive)
[32]
  GI50: 58.7 µM (inactive)
[33]
  GI50: 24.8 µM (inactive)
[34]
  GI50: 38.2 µM (inactive)
[35]
  GI50: 67.9 µM (inactive)
[36]
  GI50: 30.7 µM
[54]
  GI50: 54.7 µM (inactive)
[37]
  GI50: 16.7 µM (inactive)
[38]
  GI50: 47.2 µM (inactive)
[39]
  GI50: 41.6 µM (inactive)
[55]
  GI50: 10.5 µM (inactive)
[40]
  GI50: 49.5 µM (inactive)
[41]
  GI50: 27.3 µM (inactive)
[42]
  GI50: 36.8 µM (inactive)
[56]
  GI50: 23.6 µM (inactive)
[43]
  GI50: 28.3 µM (inactive)
[45]
  GI50: 43.8 µM (inactive)
[46]
  GI50: 30.8 µM (inactive)
[57]
  GI50: 24.2 µM (inactive)
[47]
  GI50: 36.9 µM (inactive)

## Cc1ccc(C(=O)N2c3ccccc3N(C)n3cccc3C2CC(=O)O)cc1 (stereo not drawn)
[48]
  GI50: > 100 µM (inactive)
[49]
  GI50: > 100 µM (inactive)
[1]
  GI50: > 100 µM (inactive)
[2]
  GI50: > 100 µM (inactive)
[3]
  GI50: > 100 µM (inactive)
[4]
  GI50: > 100 µM (inactive)
[5]
  GI50: > 100 µM (inactive)
[6]
  GI50: > 100 µM (inactive)
[7]
  GI50: > 100 µM (inactive)
[9]
  GI50: > 100 µM (inactive)
[50]
  GI50: > 100 µM (inactive)
[51]
  GI50: > 100 µM (inactive)
[10]
  GI50: > 100 µM (inactive)
[12]
  GI50: > 100 µM (inactive)
[13]
  GI50: > 100 µM (inactive)
[14]
  GI50: > 100 µM (inactive)
[15]
  GI50: > 100 µM (inactive)
[16]
  GI50: > 100 µM (inactive)
[17]
  GI50: > 100 µM (inactive)
[18]
  GI50: > 100 µM (inactive)
[19]
  GI50: > 100 µM (inactive)
[20]
  GI50: > 100 µM (inactive)
[21]
  GI50: > 100 µM (inactive)
[22]
  GI50: > 100 µM (inactive)
[23]
  GI50: > 100 µM (inactive)
[24]
  GI50: > 100 µM (inactive)
[25]
  GI50: > 100 µM (inactive)
[27]
  GI50: > 100 µM (inactive)
[28]
  GI50: > 100 µM (inactive)
[52]
  GI50: > 100 µM (inactive)
[29]
  GI50: > 100 µM (inactive)
[53]
  GI50: > 100 µM (inactive)
[30]
  GI50: > 100 µM (inactive)
[31]
  GI50: > 100 µM (inactive)
[32]
  GI50: > 100 µM (inactive)
[34]
  GI50: > 100 µM (inactive)
[35]
  GI50: > 100 µM (inactive)
[36]
  GI50: > 100 µM
[54]
  GI50: > 100 µM (inactive)
[37]
  GI50: > 100 µM (inactive)
[38]
  GI50: > 100 µM (inactive)
[39]
  GI50: > 100 µM (inactive)
[55]
  GI50: > 100 µM (inactive)
[41]
  GI50: > 100 µM (inactive)
[42]
  GI50: > 100 µM (inactive)
[56]
  GI50: > 100 µM (inactive)
[43]
  GI50: > 100 µM (inactive)
[44]
  GI50: > 100 µM (inactive)
[45]
  GI50: > 100 µM (inactive)
[46]
  GI50: > 100 µM (inactive)
[58]
  GI50: > 100 µM (inactive)
[57]
  GI50: > 100 µM (inactive)
[47]
  GI50: > 100 µM (inactive)
